Laboratory results: patent publication US7329754B2, “2,5-diazabicyclo[2.2.1]heptane derivatives” (Neurosearch A/S, priority 2001, dated 2008)
Counter-ions that a name gives are not always drawn.

target: serotonin transporter (Rattus norvegicus, UniProt P31652); assay: Serotonin transporter/uptake assay: synaptosomal uptake of 3H-5-hydroxytryptamine; format: biochemical; settings: not given
Protocol: In this example the biological activity of the compounds of the invention are determined using a serotonin transporter/uptake assay. Serotonin transporters/uptake sites on nerve terminals presumably function to terminate neuronal signaling by removing serotonin from the synaptic cleft. The activity of the serotonin transporter integral protein can be measured in vitro by synaptosomal uptake of ^3H-5-hydroxytryptamine.
Preparations are performed at 0-4° C. Cerebral cortices from male Wistar rats (150-200 g) are homogenized for 5-10 seconds in 100 volumes of ice-cold 0.32 M sucrose containing 1 mM pargyline, and using a motor driven teflon pestle in a glass homogenizing vessel.
Monoamine oxidase activity becomes inhibited by pargyline.
The homogenate is centrifuged at 1000×g for 10 minutes. The resulting supernatant is subjected to centrifugation at 27,000×g for 50 minutes, and the supernatant is discarded. The pellet (P2) is re-suspended in oxygenated (equilibrated with an atmosphere of 96% O2: 4% CO2 for at least 30 minutes) Krebs-Ringer incubation buffer (1000 ml per g of original tissue) at pH 7.2, containing 122 mM NaCl, 0.16 mM EDTA, 4.8 mM KCl, 12.7 mM Na2HPO4, 3.0 mM NaH2PO4, 1.2 mM MgSO4, 1 mM CaCl2, 10 mM glucose and 1 mM ascorbic acid.
Aliquots of 4.0 ml tissue suspension are added to 100 μl of test solution and 100 μl of ^3H-5-HT (1 nM, final concentration), mixed and incubated for 30 minutes at 37° C. Non-specific uptake is determined using Citalopram (1 μM, final concentration; Available from H. Lundbeck, Denmark), a serotonin reuptake inhibitor.
After incubation the samples are poured directly onto Whatman GF/C glass fibre filters under suction. The filters are washed three times with 5 ml of ice-cold 0.9% (w/v) NaCl solution.
The amount of radioactivity on the filters is determined by conventional liquid scintillation counting. Specific uptake is calculated as the difference between total uptake and non-specific uptake.
25-75% inhibition of specific binding must be obtained, before calculation of an IC50.
The test value is presented as IC50 (the concentration (μM) of the test substance which inhibits the specific binding of ^3H-5-HT by 50%), calculated according to the following equation: […]
where Co is specific binding in control assays and Cx is the specific binding in the test assay (the calculations assume normal mass-action kinetics).

serotonin transporter, sequence (P31652 whole entry): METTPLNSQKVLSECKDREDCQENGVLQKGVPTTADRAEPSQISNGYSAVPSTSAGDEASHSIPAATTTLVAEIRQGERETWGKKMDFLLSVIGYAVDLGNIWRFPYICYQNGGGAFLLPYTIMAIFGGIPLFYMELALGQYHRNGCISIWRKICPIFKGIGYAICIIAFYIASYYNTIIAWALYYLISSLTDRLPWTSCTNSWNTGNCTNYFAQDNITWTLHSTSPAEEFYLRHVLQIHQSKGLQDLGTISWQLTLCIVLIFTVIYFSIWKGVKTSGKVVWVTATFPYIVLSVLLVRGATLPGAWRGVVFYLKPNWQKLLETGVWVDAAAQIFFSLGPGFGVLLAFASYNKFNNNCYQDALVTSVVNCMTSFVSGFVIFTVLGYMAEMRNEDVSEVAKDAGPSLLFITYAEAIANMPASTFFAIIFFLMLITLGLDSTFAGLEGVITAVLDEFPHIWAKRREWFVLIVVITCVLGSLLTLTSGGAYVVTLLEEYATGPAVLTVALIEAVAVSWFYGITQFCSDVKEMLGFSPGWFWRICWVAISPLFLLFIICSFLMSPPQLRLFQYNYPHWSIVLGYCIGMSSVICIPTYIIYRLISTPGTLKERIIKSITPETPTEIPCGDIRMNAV

Row | Compound | IC50 [nM]
1 | c1ccc2nc(N3C[C@@H]4C[C@H]3CN4)ccc2c1 [Compound 1, 2-(2-Quinolinyl)-(1S,4S)-2,5-diazabicyclo-[2.2.1]-heptane fumaric acid salt] | 88
2 | O=[N+]([O-])c1ccc2nc(N3C[C@@H]4C[C@H]3CN4)ccc2c1 [Compound 3, 2-(6-Nitro-2-quinolinyl)-(1S,4S)-2,5-diazabicyclo-[2.2.1]-heptane fumaric acid salt] | 0.24
3 | CN1C[C@@H]2C[C@H]1CN2c1ccc2cc([N+](=O)[O-])ccc2n1 [Compound 4, 2-(6-Nitro-2-quinolinyl)-5-methyl-(1S,4S)-2,5-diazabicyclo-[2.2.1]-heptane fumaric acid salt] | 3.4

same assay, conditions: synaptosomes from cerebral cortices of male Wistar rats; 3H-5-HT 1 nM; 30 minutes at 37° C.; read-out: Serotonin uptake IC50

Row | Compound | IC50 [nM]
4 | CN1C[C@@H]2C[C@H]1CN2c1ccc2ccccc2n1 [Compound 2, 2-(2-Quinolinyl)-5-methyl-(1S,4S)-2,5-diazabicyclo-[2.2.1]-heptane] | 130
5 | CN1C[C@@H]2C[C@H]1CN2c1ccc2cc(N)ccc2n1 [Compound 5, 2-(6-Amino-2-quinolinyl)-5-methyl-(1S,4S)-2,5-diazabicyclo-[2.2.1]-heptane fumaric acid salt] | 840
6 | c1ccc2sc(N3C[C@@H]4C[C@H]3CN4)nc2c1 [Compound 7, 2-(2-Benzothiazolyl)-(1S,4S)-2,5-diazabicyclo-[2.2.1]-heptane fumaric acid salt] | 350
